This is an account of results in US12180207B2 (ARRAY BIOPHARMA INC., priority 2018, dated 2024).

As a reminder, the IC50 is the concentration that inhibits the measured activity by half.

SMILES strings stand for the structures.

Experiment [1] addresses phosphorylated FGFR3 (SEQ ID NO: 5, amino acids 449 to 759) (Homo sapiens (Human), UniProt P22607). The experiment is described as follows: FGFR enzyme binding assay (HTRF tracer displacement), FGFR3. Conditions: 5 nM phosphorylated FGFR3, average of multiple determinations if made. A digest of the protocol:
(§1)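 Compounds were tested for displacement of a tracer from human FGFR kinase in a time-resolved FRET binding format. After 60 minutes at 22° C, signal was read at two wavelengths and converted to percent of control, normalised between untreated wells and 1 μM reference inhibitor.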
In general terms: TR-FRET usually uses a lanthanide donor and a delayed reading to cut background.

For experiment [2], the target named is dephosphorylated FGFR2 (Homo sapiens (Human), UniProt P21802). Briefly: FGFR enzyme binding assay (HTRF tracer displacement), FGFR2. The following applies: 5 nM dephosphorylated FGFR2, average of multiple determinations if made. The method, then:
The potency of compounds inhibiting human isoforms of FGFR kinase was determined using Life Technologies' Homogeneous Time Resolved Fluorescence (HTRF)-based binding assay technology. […] After a 60 minute incubation at 22° C., the extent of tracer displacement was determined using a PerkinElmer EnVision multimode plate reader via HTRF dual wavelength detection, and the percent of control (POC) was calculated using a ratiometric emission factor. One hundred POC was determined using no test compound, and 0 POC was determined in the presence of 1 μM of an appropriate control inhibitor.

The target in experiment [3] is dephosphorylated FGFR1 (SEQ ID NO: 1, amino acids 458 to 765) (Homo sapiens (Human), UniProt P11362). Briefly: FGFR enzyme binding assay (HTRF tracer displacement), FGFR1. Conditions: 5 nM dephosphorylated FGFR1, average of multiple determinations if made. A digest of the protocol: as §1
dephosphorylated FGFR1 (SEQ ID NO: 1, amino acids 458 to 765), sequence (P11362 458-765): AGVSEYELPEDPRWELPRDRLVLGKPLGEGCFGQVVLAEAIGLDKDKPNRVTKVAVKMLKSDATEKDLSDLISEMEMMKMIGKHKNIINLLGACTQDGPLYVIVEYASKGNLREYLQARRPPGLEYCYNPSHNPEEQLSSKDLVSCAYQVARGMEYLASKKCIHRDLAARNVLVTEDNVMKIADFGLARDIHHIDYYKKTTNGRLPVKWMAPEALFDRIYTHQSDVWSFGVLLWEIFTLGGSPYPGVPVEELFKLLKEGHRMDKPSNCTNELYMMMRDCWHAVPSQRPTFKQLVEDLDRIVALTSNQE
The target of experiment [4] is recombinant human FGFR1 catalytic domain (amino acids 308-731) (Homo sapiens (Human), UniProt P11362). Briefly: FGFR1 enzyme activity assay (LanthaScreen TR-FRET). It is filed as biochemical. Conditions: 20 min incubation at 22° C., average of multiple determinations if made, read-out: FGFR1 Enz FRET IC50. A digest of the protocol: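 His-tagged FGFR1 kinase domain with 100 nM Alexa Fluor 647-poly-GT peptide and ATP in pH 7.5 HEPES/MgCl2 buffer with 2% DMSO, 20 min at 22 °C. Quenched with EDTA plus 2 nM Eu-PY20 antibody and read after 60 min. IC50 comes from a 4-parameter fit of percent of control.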
recombinant human FGFR1 catalytic domain (amino acids 308-731), sequence (P11362 other isoform, or with tags, fused parts or gaps): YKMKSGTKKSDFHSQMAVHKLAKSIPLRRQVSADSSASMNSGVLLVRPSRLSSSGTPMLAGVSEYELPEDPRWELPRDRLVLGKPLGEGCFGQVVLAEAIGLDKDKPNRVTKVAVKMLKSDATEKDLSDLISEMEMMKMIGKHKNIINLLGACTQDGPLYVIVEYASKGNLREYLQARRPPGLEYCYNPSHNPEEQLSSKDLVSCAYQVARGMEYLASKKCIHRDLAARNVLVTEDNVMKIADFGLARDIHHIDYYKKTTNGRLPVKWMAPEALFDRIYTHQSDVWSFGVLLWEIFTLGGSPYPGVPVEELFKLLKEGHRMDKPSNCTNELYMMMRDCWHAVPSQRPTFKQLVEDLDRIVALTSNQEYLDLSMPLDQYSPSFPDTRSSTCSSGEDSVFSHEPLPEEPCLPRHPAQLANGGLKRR

The target in experiment [5] is HEK-293 cells transfected with dox-inducible human wild type FGFR3 (Homo sapiens (Human), UniProt P22607). The experiment is described as follows: FGFR3 pERK cell assay. It is filed as cell-based. Conditions: HEK-293 dox-inducible FGFR3, 1 hour compound, 100 ng/ml FGF-acidic; maximum concentration 5 μM. A digest of the protocol:
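Doxycycline-induced cells preincubated 1 h at 37 °C with compound (1:3 dilutions, top 5 μM final), then stimulated 5 min with 100 ng/ml FGF-acidic. Lysate phospho-ERK1/2 measured by MSD sandwich assay; IC50 at 50 POC from 4-parameter fit, normalised to no-compound and control-compound wells.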

phosphorylated FGFR3 (SEQ ID NO: 5, amino acids 449 to 759), sequence (P22607 449-759): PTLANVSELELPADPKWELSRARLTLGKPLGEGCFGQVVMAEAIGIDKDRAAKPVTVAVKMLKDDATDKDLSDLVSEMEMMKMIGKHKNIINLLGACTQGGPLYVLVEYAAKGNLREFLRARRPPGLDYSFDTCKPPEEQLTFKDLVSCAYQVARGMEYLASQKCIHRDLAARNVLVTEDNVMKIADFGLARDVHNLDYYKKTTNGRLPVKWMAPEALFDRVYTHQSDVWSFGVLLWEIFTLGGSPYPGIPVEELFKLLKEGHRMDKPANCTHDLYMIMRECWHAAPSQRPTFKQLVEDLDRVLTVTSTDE
dephosphorylated FGFR2, sequence (P21802 22-821): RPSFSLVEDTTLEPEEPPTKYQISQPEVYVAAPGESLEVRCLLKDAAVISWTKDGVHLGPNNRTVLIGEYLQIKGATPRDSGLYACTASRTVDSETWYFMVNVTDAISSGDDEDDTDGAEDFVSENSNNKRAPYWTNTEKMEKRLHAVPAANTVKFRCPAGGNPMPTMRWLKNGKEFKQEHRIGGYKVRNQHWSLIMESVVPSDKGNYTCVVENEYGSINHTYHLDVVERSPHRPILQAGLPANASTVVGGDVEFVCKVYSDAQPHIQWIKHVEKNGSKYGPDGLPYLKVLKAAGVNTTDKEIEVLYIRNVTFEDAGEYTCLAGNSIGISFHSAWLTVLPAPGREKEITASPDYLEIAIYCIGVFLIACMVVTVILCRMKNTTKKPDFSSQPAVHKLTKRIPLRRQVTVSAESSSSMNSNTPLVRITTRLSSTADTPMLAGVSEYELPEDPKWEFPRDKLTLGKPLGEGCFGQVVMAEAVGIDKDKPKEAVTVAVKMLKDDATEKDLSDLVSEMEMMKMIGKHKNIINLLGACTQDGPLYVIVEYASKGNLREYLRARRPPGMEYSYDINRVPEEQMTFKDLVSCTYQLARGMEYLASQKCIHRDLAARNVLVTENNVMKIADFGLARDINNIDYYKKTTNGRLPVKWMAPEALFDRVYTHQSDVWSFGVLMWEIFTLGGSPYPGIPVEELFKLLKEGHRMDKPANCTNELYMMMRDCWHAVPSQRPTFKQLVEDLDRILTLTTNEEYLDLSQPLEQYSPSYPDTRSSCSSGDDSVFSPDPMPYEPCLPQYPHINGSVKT
HEK-293 cells transfected with dox-inducible human wild type FGFR3, sequence (P22607 23-806): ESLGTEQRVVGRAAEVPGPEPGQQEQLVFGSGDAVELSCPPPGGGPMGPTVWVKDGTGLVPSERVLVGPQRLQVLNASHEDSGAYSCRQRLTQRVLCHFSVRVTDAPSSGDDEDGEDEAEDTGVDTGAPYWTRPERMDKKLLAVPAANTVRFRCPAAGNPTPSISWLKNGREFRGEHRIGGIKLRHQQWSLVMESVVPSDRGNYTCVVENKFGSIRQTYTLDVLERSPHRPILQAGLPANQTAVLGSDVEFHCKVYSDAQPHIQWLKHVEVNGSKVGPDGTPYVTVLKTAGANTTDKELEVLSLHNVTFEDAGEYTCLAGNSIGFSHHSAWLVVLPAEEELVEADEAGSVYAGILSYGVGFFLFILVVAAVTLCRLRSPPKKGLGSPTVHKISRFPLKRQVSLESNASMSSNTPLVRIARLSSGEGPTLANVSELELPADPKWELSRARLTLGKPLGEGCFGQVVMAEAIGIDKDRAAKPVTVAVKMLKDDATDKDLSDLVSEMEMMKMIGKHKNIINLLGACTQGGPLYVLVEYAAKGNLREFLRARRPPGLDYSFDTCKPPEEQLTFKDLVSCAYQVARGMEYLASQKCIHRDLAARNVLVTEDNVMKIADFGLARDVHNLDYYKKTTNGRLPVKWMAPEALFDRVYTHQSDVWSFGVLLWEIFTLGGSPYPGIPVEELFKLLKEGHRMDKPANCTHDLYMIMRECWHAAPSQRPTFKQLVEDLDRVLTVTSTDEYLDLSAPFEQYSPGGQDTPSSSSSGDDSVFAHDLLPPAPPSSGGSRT

For the compound `C=CC(=O)N1CC(OC)(C(=O)N2CCC(n3ncc(-c4cc(OC)c5c(Cl)cnn5c4)c3C)CC2)C1` [Example 117, 1-(3-(4-(4-(3-chloro-4-methoxypyrazolo[1,5-a]pyridin-6-yl)-5-methyl-1H-pyrazol-1-yl)piperidine-1-carbonyl)-3-methoxyazetidin-1-yl)prop-2-en-1-one], the IC50 came to 19 nM in experiment [1]; 103 nM in experiment [2]; 814 nM in experiment [3]; 789 nM in experiment [4]; 36 nM in experiment [5].

Regarding `C=CC(=O)N1CC(CN2CCC(n3ncc(-c4cc(OC)c5c(Cl)cnn5c4)c3C)CC2)C1` [Example 118, 1-(3-((4-(4-(3-chloro-4-methoxypyrazolo[1,5-a]pyridin-6-yl)-5-methyl-1H-pyrazol-1-yl)piperidin-1-yl)methyl)azetidin-1-yl)prop-2-en-1-one], the IC50 in experiment [1] amounted to 9 nM; in experiment [2] it was 56 nM; in experiment [3], 455 nM; in experiment [4] it was 551 nM; in experiment [5] it was 62 nM.

Turning to `C=CC(=O)N1CC(CN2CCC(n3ncc(-c4cc(OC)c5c(Cl)cnn5c4)c3C)CC2)(OC)C1` [Example 119, 1-(3-((4-(4-(3-chloro-4-methoxypyrazolo[1,5-a]pyridin-6-yl)-5-methyl-1H-pyrazol-1-yl)piperidin-1-yl)methyl)-3-methoxyazetidin-1-yl)prop-2-en-1-one], the IC50 stood at 8 nM in experiment [1]; 60 nM in experiment [2]; 565 nM in experiment [3]; 334 nM in experiment [4]; 50 nM in experiment [5].

Turning to `C=CC(=O)N1CC(CN2CCC(n3ncc(-c4cc(OC)c5c(Cl)cnn5c4)c3C)CC2)C1(C)C` (stereo not drawn) [Example 120, 1-(3-((4-(4-(3-chloro-4-methoxypyrazolo[1,5-a]pyridin-6-yl)-5-methyl-1H-pyrazol-1-yl)piperidin-1-yl)methyl)-2,2-dimethylazetidin-1-yl)prop-2-en-1-one], the IC50 in experiment [1] was determined as 33 nM; in experiment [2] it was 84 nM; in experiment [3], 400 nM; in experiment [4] it was 338 nM; in experiment [5] it was 142 nM.

For `C=CC(=O)N1CCN(C(=O)N2CCC(n3cc(-c4cc(OC)c5c(C#N)cnn5c4)cn3)CC2)C[C@@H]1CC#N` [Example 135, (S)-6-(1-(1-(4-acryloyl-3-(cyanomethyl)piperazine-1-carbonyl)piperidin-4-yl)-1H-pyrazol-4-yl)-4-methoxypyrazolo[1,5-a]pyridine-3-carbonitrile], the IC50 was 3 nM in experiment [1]; 13 nM in experiment [2]; 35 nM in experiment [3]; 20 nM in experiment [4]; 40 nM in experiment [5].

As to `COc1cc(-c2cnn(C3CCN(C(=O)C4CN(C(=O)C5=CCC5)C4)CC3)c2)cn2ncc(C#N)c12` [Example 137, 6-(1-(1-(1-(cyclobut-1-ene-1-carbonyl)azetidine-3-carbonyl)piperidin-4-yl)-1H-pyrazol-4-yl)-4-methoxypyrazolo[1,5-a]pyridine-3-carbonitrile], the 50% inhibitory concentration (IC50) was determined as 8 nM in experiment [1]; 15 nM in experiment [2]; 49 nM in experiment [3]; 12 nM in experiment [4]; 318 nM in experiment [5].

As for `COc1cc(-c2cnn(C3CCN(C(=O)C4CN(C(=O)/C=C/CO)C4)CC3)c2)cn2ncc(C#N)c12` [Example 141, (E)-6-(1-(1-(1-(4-hydroxybut-2-enoyl)azetidine-3-carbonyl)piperidin-4-yl)-1H-pyrazol-4-yl)-4-methoxypyrazolo [1,5-a]pyridine-3-carbonitrile], the IC50 in experiment [1] worked out at 6 nM; in experiment [2], 18 nM; in experiment [3] it was 40 nM; in experiment [4], 43 nM; in experiment [5], 3910 nM.

`C=CC(=O)N1CC(CN2CCC(n3ncc(-c4cc(OC)c5c(C#N)cnn5c4)c3C)CC2)C1(C)C` (stereo not drawn) [Example 151, 6-(1-(1-((1-acryloyl-2,2-dimethylazetidin-3-yl)methyl)piperidin-4-yl)-5-methyl-1H-pyrazol-4-yl)-4-methoxypyrazolo [1,5-a]pyridine-3-carbonitrile]: the IC50 in experiment [1] was determined as 11 nM; in experiment [2], 38 nM; in experiment [3], 171 nM; in experiment [4], 86 nM; in experiment [5] it was 592 nM.

For `COc1cc(-c2cnn(C3CCN(C(=O)C4CN(C(=O)/C=C/CN(C)C)C4)CC3)c2C)cn2ncc(C#N)c12` [Example 152, (E)-6-(1-(1-(1-(4-(dimethylamino)but-2-enoyl)azetidine-3-carbonyl)piperidin-4-yl)-5-methyl-1H-pyrazol-4-yl)-4-methoxypyrazolo [1,5-a]pyridine-3-carbonitrile], the IC50 in experiment [1] was 7 nM; in experiment [2] it was 49 nM; in experiment [3], 320 nM; in experiment [4], 99 nM; in experiment [5], 849 nM.

`COc1cc(-c2cnn(C3CCN(C(=O)C4(F)CN(C(=O)/C=C/CN(C)C)C4)CC3)c2C)cn2ncc(C#N)c12` [Example 153, (E)-6-(1-(1-(1-(4-(dimethylamino)but-2-enoyl)-3-fluoroazetidine-3-carbonyl)piperidin-4-yl)-5-methyl-1H-pyrazol-4-yl)-4-methoxypyrazolo [1,5-a]pyridine-3-carbonitrile]: the concentration for half-maximal inhibition (IC50) was 2 nM in experiment [1]; 11 nM in experiment [2]; 210 nM in experiment [3]; 39 nM in experiment [4]; 25 nM in experiment [5].

In the case of `COC/C=C/C(=O)N1CC(F)(C(=O)N2CCC(n3ncc(-c4cc(OC)c5c(C#N)cnn5c4)c3C)CC2)C1` [Example 154, (E)-6-(1-(1-(3-fluoro-1-(4-methoxybut-2-enoyl)azetidine-3-carbonyl)piperidin-4-yl)-5-methyl-1H-pyrazol-4-yl)-4-methoxypyrazolo [1,5-a]pyridine-3-carbonitrile], the 50% inhibitory concentration (IC50) in experiment [1] is 19 nM; in experiment [2], 69 nM; in experiment [3] it was 430 nM; in experiment [4], 335 nM; in experiment [5], 122 nM.

Regarding `COc1cc(-c2cnn(C3CCN(C(=O)C4(F)CN(C(=O)/C=C/C(F)(F)F)C4)CC3)c2C)cn2ncc(C#N)c12` [Example 155, (E)-6-(1-(1-(3-fluoro-1-(4,4,4-trifluorobut-2-enoyl)azetidine-3-carbonyl)piperidin-4-yl)-5-methyl-1H-pyrazol-4-yl)-4-methoxypyrazolo [1,5-a]pyridine-3-carbonitrile], the IC50 in experiment [1] worked out at 10 nM; in experiment [2] it was 51 nM; in experiment [3], 426 nM; in experiment [4], 255 nM; in experiment [5] it was 31 nM.

With `CC#CC(=O)N1CC(F)(C(=O)N2CCC(n3ncc(-c4cc(OC)c5c(C#N)cnn5c4)c3C)CC2)C1` [Example 156, 6-(1-(1-(1-(but-2-ynoyl)-3-fluoroazetidine-3-carbonyl)piperidin-4-yl)-5-methyl-1H-pyrazol-4-yl)-4-methoxypyrazolo [1,5-a]pyridine-3-carbonitrile], the half-maximal inhibitory concentration (IC50) came out at 18 nM in experiment [1]; 26 nM in experiment [2]; 598 nM in experiment [3]; 375 nM in experiment [4]; 91 nM in experiment [5].

As for `COc1cc(-c2cnn(C3CCN(C(=O)C4(C)CN(C(=O)/C=C/CN(C)C)C4)CC3)c2C)cn2ncc(C#N)c12` [Example 157, (E)-6-(1-(1-(1-(4-(dimethylamino)but-2-enoyl)-3-methylazetidine-3-carbonyl)piperidin-4-yl)-5-methyl-1H-pyrazol-4-yl)-4-methoxypyrazolo [1,5-a]pyridine-3-carbonitrile], the IC50 in experiment [1] was 6 nM; in experiment [2], 6 nM; in experiment [3], 274 nM; in experiment [4], 90 nM; in experiment [5] it was 1150 nM.

Regarding `COc1cc(-c2cnn(C3CCN(C(=O)C4(OC)CN(C(=O)/C=C/CN(C)C)C4)CC3)c2C)cn2ncc(C#N)c12` [Example 158, (E)-6-(1-(1-(1-(4-(dimethylamino)but-2-enoyl)-3-methoxyazetidine-3-carbonyl)piperidin-4-yl)-5-methyl-1H-pyrazol-4-yl)-4-methoxypyrazolo [1,5-a]pyridine-3-carbonitrile], the IC50 in experiment [1] stood at 2 nM; in experiment [2], 8 nM; in experiment [3], 168 nM; in experiment [4], 77 nM; in experiment [5] it was 108 nM.
